Experimental data reported in US20240150370A1, “BICYCLIC PYRIDINE DERIVATIVE” (Sumitomo Pharma Co., Ltd., priority 0001, published 2024).
Counter-ions that a name gives are not always drawn. Like-named read-outs stand apart in the source and are kept apart here.

Assays:
[1] = biological target: human TAAR1 receptor (Homo sapiens (Human), UniProt Q96RJ0); experiment: Evaluation of agonist activity on human TAAR1 receptor (cAMP assay); type: cell-based; conditions: for activation at 0.1 µM / activation at 1 µM / activation at 10 µM: CHO, 0.5 h, read-out: TAAR1 agonist activity at each concentration (%)
Chain of human TAAR1 receptor (Q96RJ0 whole entry): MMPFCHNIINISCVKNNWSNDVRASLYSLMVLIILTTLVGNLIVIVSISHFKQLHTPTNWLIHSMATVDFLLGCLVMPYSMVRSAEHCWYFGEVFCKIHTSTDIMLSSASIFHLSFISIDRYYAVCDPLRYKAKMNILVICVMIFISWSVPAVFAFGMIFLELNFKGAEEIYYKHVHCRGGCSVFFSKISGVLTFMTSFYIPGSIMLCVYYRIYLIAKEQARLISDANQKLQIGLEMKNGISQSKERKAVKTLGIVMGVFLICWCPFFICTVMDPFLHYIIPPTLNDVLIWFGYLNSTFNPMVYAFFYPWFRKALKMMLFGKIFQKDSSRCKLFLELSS
Protocol: TAAR1 is a G protein-coupled receptor that binds to G proteins (Gas), and activation of the TAAR1 receptor by agonists induces an increase in intracellular cAMP levels. Therefore, the agonist activity of the sample on the human TAAR1 receptor was evaluated using the cAMP assay method.
cAMP Hunter™ CHO-K1 TAAR1 Gs Cell Line, a cell expressing human TAAR1 receptor, was purchased. Human TAAR1-expressing CHO cells were seeded in a 96-well plate, and after culturing for 24 hours, a sample dissolved in DMSO was added and incubated at 37° C. for 30 minutes. A sample for cAMP measurement was prepared according to the cAMPHiRange kit protocol. The amount of cAMP produced by the sample was measured by time-resolved fluorescence using EnVision (excitation wavelength: 330 nm, fluorescence wavelength […]/665 nm).
Sample %=100×{(Csamp)−(Cblank)}/{(Ctyramine)−(Cblank)} • Csamp: count of sample, Ctyramine: count of 100 μM tyramine, Cblank: count of blank

[2] = biological target: hERG channel (Homo sapiens (Human), UniProt Q12809); experiment: Evaluation of hERG channel inhibitory activity (whole-cell patch clamp, hERG-CHO cells); type: cell-based; conditions: autopatch clamp, read-out: hERG inhibition IC50
Chain of hERG channel (Q12809 whole entry, the tested form may be a part): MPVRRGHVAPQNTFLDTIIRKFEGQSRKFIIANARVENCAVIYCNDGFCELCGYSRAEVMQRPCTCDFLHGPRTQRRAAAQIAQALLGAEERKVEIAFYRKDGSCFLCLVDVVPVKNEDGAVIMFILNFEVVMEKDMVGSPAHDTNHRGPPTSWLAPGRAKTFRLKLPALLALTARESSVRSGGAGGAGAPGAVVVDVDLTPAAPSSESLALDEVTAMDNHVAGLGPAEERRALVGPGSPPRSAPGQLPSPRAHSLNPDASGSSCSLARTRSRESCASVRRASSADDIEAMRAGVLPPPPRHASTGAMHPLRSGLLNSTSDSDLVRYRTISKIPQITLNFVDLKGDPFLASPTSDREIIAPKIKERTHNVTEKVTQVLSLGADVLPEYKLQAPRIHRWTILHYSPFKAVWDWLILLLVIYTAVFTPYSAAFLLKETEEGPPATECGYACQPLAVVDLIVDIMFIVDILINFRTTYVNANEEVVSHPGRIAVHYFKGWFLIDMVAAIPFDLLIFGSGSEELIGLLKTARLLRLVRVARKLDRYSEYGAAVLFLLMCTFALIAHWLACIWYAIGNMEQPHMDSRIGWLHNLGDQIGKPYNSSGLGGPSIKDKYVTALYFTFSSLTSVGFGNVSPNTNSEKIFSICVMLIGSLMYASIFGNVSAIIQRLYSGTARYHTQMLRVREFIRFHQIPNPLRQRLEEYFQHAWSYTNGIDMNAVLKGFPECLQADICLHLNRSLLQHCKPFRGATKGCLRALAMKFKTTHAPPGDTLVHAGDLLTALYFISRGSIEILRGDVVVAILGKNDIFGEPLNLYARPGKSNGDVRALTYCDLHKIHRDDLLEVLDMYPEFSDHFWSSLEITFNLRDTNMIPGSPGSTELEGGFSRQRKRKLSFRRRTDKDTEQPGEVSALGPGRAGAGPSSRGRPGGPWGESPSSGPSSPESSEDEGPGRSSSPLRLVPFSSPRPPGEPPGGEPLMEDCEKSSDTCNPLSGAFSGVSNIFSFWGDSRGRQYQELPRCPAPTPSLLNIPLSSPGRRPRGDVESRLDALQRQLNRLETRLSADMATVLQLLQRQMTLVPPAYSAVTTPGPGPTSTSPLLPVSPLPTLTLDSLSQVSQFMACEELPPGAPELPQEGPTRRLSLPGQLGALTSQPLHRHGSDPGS

[3] = 100 nM, cAMP in human TAAR1-expressing CHO cells, relative to 100 μM tyramine
[4] = 1000 nM, cAMP in human TAAR1-expressing CHO cells, relative to 100 μM tyramine
[5] = 10000 nM, cAMP in human TAAR1-expressing CHO cells, relative to 100 μM tyramine

Row | SMILES | activation at 0.1 µM [1, 3] [%] | activation at 1 µM [1, 4] [%] | activation at 10 µM [1, 5] [%] | other results
1 | C[C@@H]1C[C@@H](CN)c2ncccc2S1 (racemic) [Example 14] | 10 | 47 | 74 | IC50 [2]: > 100 µM
2 | C[C@H]1Sc2cccnc2[C@@H]1CN (racemic) [Example 15] | 24 | 67 | 90 | IC50 [2]: > 100 µM
3 | C[C@@H]1Sc2cccnc2[C@@H]1CN (racemic) [Example 16] | 6 | 37 | 76 | IC50 [2]: 68.6 µM
4 | NC[C@H]1C[C@@H](c2ccccc2)Oc2cccnc21 (racemic) [Example 24] | 25 | 71 | 101 | IC50 [2]: 6.9 µM
5 | NC[C@@H]1C[C@@H](c2ccccc2)Oc2cccnc21 (racemic) [Example 25] | 2 | 21 | 63 | IC50 [2]: 5.8 µM
6 | CNCC1CCSc2cccnc21 (racemic) [Example 45, rac-1-(3,4-dihydro-2H-thiopyrano[3,2-b]pyridin-4-yl)-N-methylmethanamine dihydrochloride] | 13 | 51 | 77 | IC50 [2]: > 100 µM
7 | COc1ccc2c(n1)C(CN)CCC2 (racemic) [Example 88, rac-1-(2-methoxy-5,6,7,8-tetrahydroquinolin-8-yl)methanamine dihydrochloride] | 11 | 38 | 65 | IC50 [2]: > 100 µM
8 | Cc1ccc2c(n1)C(CN)C1(CC1)O2 (racemic) [Example 90, rac-1-(5′-methyl-3′H-spiro[cyclopropane-1,2′-furo[3,2-b]pyridine]-3′-yl)methanamine dihydrochloride] | 54 | 85 | 94 | IC50 [2]: 71.8 µM
9 | NC[C@@H]1CCSc2cccnc21 (single isomer, unassigned) [Example 40, dihydrochloride] | 25 | 57 | 68 | IC50 [2]: > 100 µM
10 | NC[C@H]1CSc2cccnc21 (single isomer, unassigned) [Example 41, dihydrochloride] | 12 | 38 | 65 | IC50 [2]: > 100 µM
11 | NC[C@@H]1CSc2cccnc21 (single isomer, unassigned) [Example 42, dihydrochloride] | 25 | 70 | 90 | IC50 [2]: > 100 µM
12 | NC[C@H]1c2ncccc2OC12CC2 (single isomer, unassigned) [Example 97, rel-1-[(3'S)-3′H-spiro[cyclopropane-1,2′-furo[3,2-b]pyridine]-3′-yl]methanamine dihydrochloride] | 70 | 101 | 96 | IC50 [2]: > 100 µM
13 | C[C@@H]1COc2cccnc2[C@@H]1CN (stereo in doubt) [Example 2, rac-1-[(3S,4S)-3-methyl-3,4-dihydro-2H-pyrano[3,2-b]pyridin-4-yl]methanamine dihydrochloride] | 7 | 37 | 75 | IC50 [2]: > 100 µM
14 | CC[C@H]1Oc2cccnc2[C@@H]1CN (stereo in doubt) [Example 43, rel-1-[(2R,3S)-2-ethyl-2,3-dihydrofuro[3,2-b]pyridin-3-yl]methanamine dihydrochloride] | 0 | 0 | 7 | 
15 | [2H][C@]1(C)Oc2cccnc2[C@@H]1CN (stereo in doubt) [Example 57] | 32 | 72 | 79 | 
16 | [2H][C@@]1(C)Oc2cccnc2[C@H]1CN (stereo in doubt) [Example 94, rel-1-[(2S,3R)-2-methyl(2-^2H)-2,3-dihydrofuro[3,2-b]pyridin-3-yl]methanamine dihydrochloride] | 1 | 4 | 28 | 
17 | NCC1CSc2cccnc21 (stereo not shown) [Example 10] | 18 | 66 | 91 | 
18 | Cc1ccc2c(n1)[C@@H](CN)C[C@@H](C)O2 [Example 17] | 0 | 4 | 25 | 
19 | C[C@@H]1Oc2cccnc2[C@H]1CN [Example 19] | 2 | 13 | 51 | 
20 | C[C@@H]1Oc2cccnc2[C@@H]1CN [Example 20] | 33 | 88 | 107 | 
21 | Cc1cnc2c(c1)O[C@H](C)[C@H]2CN [Example 28] | 7 | 38 | 71 | 
22 | C[C@H]1Oc2ccc(C(F)(F)F)nc2[C@@H]1CN [Example 30] | 2 | 18 | 63 | 
23 | C[C@H]1Oc2cc(C(F)(F)F)cnc2[C@@H]1CN [Example 31] | 1 | 3 | 12 | 

Row | SMILES | activation at 0.1 µM [1, 3] [%] | activation at 1 µM [1, 4] [%] | activation at 10 µM [1, 5] [%] | other results
24 | C[C@@H]1C[C@H](CN)c2ncc(F)cc2O1 [Example 52] | 1 | 8 | 48 | 
25 | CC1(C)COc2cccnc2C1CN (stereo not shown) [Example 53] |  |  |  | activation at 0.1 µM [1]: 0%; activation at 1 µM [1]: 3%; activation at 10 µM [1]: 18%
26 | C[C@H]1Oc2cccnc2[C@@H]1C(C)(C)N [Example 54] | 15 | 63 | 94 | 
27 | C[C@H](N)[C@H]1c2ncccc2O[C@@H]1C [Example 55] |  |  |  | TAAR1 agonist activity at each concentration (%) [1, 3]: 31%; TAAR1 agonist activity at each concentration (%) [1, 4]: 75%; TAAR1 agonist activity at each concentration (%) [1, 5]: 87%
28 | C[C@@H](N)[C@H]1c2ncccc2O[C@@H]1C [Example 56] |  |  |  | TAAR1 agonist activity at each concentration (%) [1, 3]: 23%; TAAR1 agonist activity at each concentration (%) [1, 4]: 67%; TAAR1 agonist activity at each concentration (%) [1, 5]: 82%
29 | C[C@H]1Oc2c(F)ccnc2[C@@H]1CN [Example 59] | 19 | 65 | 84 | 
30 | C[C@@H]1C[C@@H](CN)c2ncc(F)cc2O1 [Example 66] | 21 | 66 | 82 | 
31 | NCC1CCOc2ccc(C(F)(F)F)nc21 (stereo not shown) [Example 67] | 1 | 10 | 39 | 
32 | NCC1CCNc2cccnc21 (stereo not shown) [Example 68] | 3 | 23 | 68 | 
33 | NCC1c2ncccc2OCC12CC2 (stereo not shown) [Example 69] | 4 | 30 | 62 | 
34 | Cc1ccnc2c1OCCC2CN (stereo not shown) [Example 70] | 0 | 23 | 57 | 
35 | C=CCNC[C@H]1c2ncccc2O[C@@H]1C [Example 71] | 0 | 6 | 29 | 
36 | CCCNC[C@H]1c2ncccc2O[C@@H]1C [Example 72] | 0 | 4 | 23 | 
37 | COCCNC[C@H]1c2ncccc2O[C@@H]1C [Example 73] | 0 | 9 | 40 | 
38 | CCNC[C@H]1c2ncccc2O[C@@H]1C [Example 74] | 7 | 46 | 92 | 
39 | NCC1CCc2c(Cl)ccnc21 (stereo not shown) [Example 75] | 0 | 26 | 75 | 
40 | CCOc1ccnc2c1CCC2CN (stereo not shown) [Example 76] | 0 | 6 | 33 | 
41 | CC1CCC(CN)c2ncccc21 (stereo not shown) [Example 77] | 0 | 11 | 47 | 
42 | CNCC1CC(C)c2cccnc21 (stereo not shown) [Example 78] | 0 | 5 | 27 | 
43 | [2H]C([2H])([2H])NC[C@H]1c2ncc(F)cc2O[C@@H]1C [Example 80] | 17 | 48 | 62 | 
44 | NCC1c2nc(Cl)ccc2OC12CC2 (stereo not shown) [Example 81] | 48 | 86 | 95 | 
45 | NCC1c2nc(F)ccc2OC12CC2 (stereo not shown) [Example 82] | 51 | 92 | 101 | 
